Measurements as given in patent US7893068B2, “Physiologically active substances” (Mercian Corporation, priority 2002, dated 2011).

What was measured:
[1] = Physico-chemical properties: solubility; assay type: physicochemical
Description: The physico-chemical properties of 11107D are shown below. The structure of 11107D was determined as shown below.

[2] = Stability in an aqueous solution (HPLC residual ratio); settings: for Peak area (mAU × sec) after 24 hours / The residual ratios (%): Britton-Robinson's buffer pH 7, 25° C., 24 hours; for Peak area (mAU × sec) initial: Britton-Robinson's buffer pH 7, before incubation
Description: The compounds of the formula (I) were dissolved in DMSO in concentrations of 10 to 20 mM, and these were diluted about 500 folds with Britton-Robinson's buffer solution of pH 7. Each of the solutions as sample solutions was incubated at 25° C. for 24 hours.
The sample solutions were analyzed by high performance liquid chromatography before and after incubation, and the residual ratios of the tested substances in the sample solutions after incubation were determined from the peak areas of the obtained chromatograms.

P388 mouse leukemia cell [3] = settings: P388, RPM-1640 medium; cited from earlier work
[4] = tested on: L-1210 mouse leukemia cell; settings: L-1210, RPM-1640 medium; cited from earlier work
[5] = tested on: HL-60 human leukemia cell; settings: HL-60, RPM-1640 medium; cited from earlier work
P388 mouse leukemia cell [6] = settings: cited from earlier work
[7] = Body weight loss (acute toxicity) in the WiDr tumor model; assay type: in vivo, nude mice; settings: Dose 5.0 mg/kg, intravenous 5 consecutive days; body weight relative to Day 1
Text: (§1) In order to study solid tumor growth inhibitory activities of the compounds of the formula (I) in vivo, WiDr human colon cancer cells were implanted subcutaneously into the flanks of nude mice. […]. The animals were grouped so that the average of the volumes of the respective groups became uniform, when it reached about 100 mm^3. Control group was made up of 10 mice and 11107D-administering groups were made up of 5 mice. The derivatives were administered for the administering groups for 5 consecutive days by intravenous injection so as to be any of 0.625 mg, 1.25 mg, 2.5 mg, 5 mg and 10 mg/kg/day, and a vehicle was administered to the control group. The tumor volumes on Day 15 were measured, and relative tumor volume ratios (T/C %) were determined setting the tumor volume of the control group as 100%. The body weights on Day 1, Day 5, Day 8, Day 12 and Day 15 (or 16) were measured, and relative body weight variations were determined setting the body weight on Day 1 as 100%. The relative body weight ratios on the day where the body weight reached the minimum were defined as the minimum relative weight ratios and are shown in Table 3.

VEGF promoter = test: VEGF transcription-suppressing activity (VEGF promoter-PLAP reporter, U251/1-8 cells, hypoxia); assay type: cell-based; settings: Homo sapiens, U-251; U251/1-8 cells, hypoxic incubator 18 hours, PLAP activity; read-out: VEGF transcription-suppressing activities (IC50: nM)
Text: In order to prepare reporter system reflecting transcription from VEGF promoter, VEGF promoter sequence was cloned, and inserted in secretory alkaline phosphatase (PLAP) vector to construct reporter vector.
In order to obtain the promoter region of human VEGF, VEGF genomic DNA was cloned from phage library. PCR primers having the sequences described in Sequence Numbers 1 and 2 were designed based on VEGF cDNA (GenBank accession number: X62568) and a fragment having about 340 bp was obtained by carrying out PCR. Human genomic phage library (Human genomic library, Clontech Co.) was screened using this as a probe to obtain VEGF genomic DNA. The DNA was digested by EcoRI, and the resultant fragments were inserted in the EcoRI site of pUC18. Finally, pUC18-VEGFA containing about 5.4 kb of VEGF 5′ flanking region was obtained. The pUC18-VEGFA was digested by KpnI/NheI, VEGF promoter region of about 2.3 kb obtained was inserted in the multi cloning site KpnI/NheI of secretory alkaline phosphatase (PLAP) vector (Goto et al, Mol. Pharmacol., 49, 860-873, 1996), and thus, VEGF-PLAP vector was constructed.
The above-mentioned VEGF-PLAP vector was transfected in the U251 cell cultured in the DULBECCO-modified eagle medium (DMEM; manufactured by SIGMA Co., Ltd.) containing 10% fetal calf serum, and the cells were cultured in the presence of 1 mg/mL G418 (Merck Co.) to establish G418 resistant stable clone (U251/1-8 cell).
It was confirmed that U251/1-8 cell secreted PLAP under hypoxic condition (2% O2 incubator) in the same manner as in the report (Cell. Mol. Biol. Res. 40, 35-39, 1994) and was a reporter system reflecting the transcription from VEGF promoter. The screening of the compound suppressing VEGF production which was induced by hypoxic stimulation was carried out below using the clone.
In order to remove the influence of alkaline phosphates in serum, U251/1-8 cells were rinsed twice with the adequate amount of PBS (Phosphate buffered saline), diluted in the DMEM medium containing 10% of serum in which alkaline phosphates was inactivated by the treatment of 65° C. for 20 min., and dispensed in 96-well plates by 4×10^4 cells/180 μL.
After culturing at 37° C. overnight in a CO2 incubator (5% CO2), 20 μL of the above-mentioned incubation solution containing the test compound diluted with 3-fold succession was added, and then they were incubated in a hypoxic (2% […]) incubator for 18 hours. With respect to the PLAP activity in the culture supernatants, 10 μL of the supernatants was added to 50 μL of 0.28 M Na2CO3—NaHCO3 buffer solution (pH 10.0, 8.0 mM MgSO4), and finally 50 μL of alkaline phosphatase substrate (LUMISTEIN, Genomescience Co.) was added. After reacting for one hour, the alkaline phosphatase activity of the PLAP was measured by detecting the chemical luminescence by a micro plate reader (Perkin-Elmer Co.). The PLAP activity under normoxia was set as 0%, the PLAP activity of cell which was treated under hypoxia was set as 100%, and the concentration suppressing the PLAP activity by 50% was set as the IC50 value of PLAP. The IC50 values of 11107D derivatives shown in Examples were measured, and the IC50 values of representative 11107D derivatives are shown in Table 1.

[8] = tested on: WiDr human colon cancer cells; test: Growth inhibitory activities on WiDr human colon cancer cells (MTT); assay type: cell-based; settings: 72 h, three days incubation
Description: WiDr human colon cancer cells cultured in DULBECCO-modified eagle medium (DMEM; manufactured by SIGMA Co., Ltd.) containing 10% fetal calf serum, penicillin (100 unit/mL) and streptomycin (100 μg/mL) were dispensed in 96-well plates by 2×10^3 cells/well. After culturing overnight in a CO2 incubator, 20 μL of the above-mentioned incubation solution containing the test compound diluted with 3-fold succession was added, followed by incubation. After three days, 50 μL of 3.3 mg/mL MTT solution was added, followed by culturing for further one hour. Then, formazan formed by the reduction by the action of living cells was extracted with 100 μL of DMSO, the absorbance (A540/A660) was determined and was set as the index of the number of living cells.
The concentrations of the compounds of the formula (I) at which the growth of WiDr human colon cancer cells are inhibited 50% were determined.

[9] = tested on: WiDr human colon cancer cells; test: Solid tumor growth inhibitory activities, WiDr human colon tumor model in nude mice; assay type: in vivo; settings: Mus musculus, 360 h, Dose 5.0 mg/kg, intravenous injection 5 consecutive days, tumor volume Day 15, read-out: Growth inhibitory activities in the WiDr human solid tumor model (T/C %)
Text: as §1

SMILES	Solubility in organic solvents ([1]; dimethyl sulfoxide, pyridine, methanol and acetone)	Solubility in water ([1]; water)	Peak area (mAU × sec) after 24 hours [2]	The residual ratios (%) [2]	Peak area (mAU × sec) initial [2]	Stability in an aqueous solution [2]	in vitro cell growth inhibitory activities (P388 mouse leukemia cell [3])	in vitro cell growth inhibitory activities [4]	in vitro cell growth inhibitory activities [5]	antitumor activities in an in vivo experiment (P388 mouse leukemia cell [6])	the minimum relative weight ratios [7]	IC50 (VEGF promoter)	IC50 [8]	response vs control in vivo at 5 mg/kg [9]
CCC(O)C(C)C1OC1CC(C)(O)/C=C/C=C(\C)C1OC(=O)CC(O)CCC(C)(O)C(OC(C)=O)/C=C/C1C (stereo not drawn) [Compound 11107D, (8E,12E,14E)-7-acetoxy-3,6,16,21-tetrahydroxy-6,10,12,16,20-pentamethyl-18,19-epoxytricosa-8,12,14-trien-11-olide]	soluble	slightly soluble	3817 mAU × sec	95.6%	3994 mAU × sec	stable even in an aqueous solution	–	–	–	–	–	–	–	–
CCC(OC)C(C)C1OC1C(O)C(C)/C=C/C=C(\C)C1OC(=O)CC(O)CCC(C)(O)C(OC(C)=O)/C=C/C1C (stereo not drawn) [FD895, reference compound]	–	–	993 mAU × sec	83%	1197 mAU × sec	unstable in an aqueous solution	has in vitro cell growth inhibitory activities	has in vitro cell growth inhibitory activities	has in vitro cell growth inhibitory activities	did not show antitumor activities	–	–	–	–
CCC(O)C(C)C1OC1CC(C)(O)/C=C/C=C(\C)C1OC(=O)CC(O)CCC(C)(O)C(OC(=O)N2CCN(C3CCCCCC3)CC2)/C=C/C1C (stereo not drawn) [Compound 45, (8E,12E,14E)-7-((4-Cycloheptylpiperazin-1-yl)carbonyl)oxy-3,6,16,21-tetrahydroxy-6,10,12,16,20-pentamethyl-18,19-epoxytricosa-8,12,14-trien-11-olide]	–	–	5024 mAU × sec	95.0%	5291 mAU × sec	–	–	–	–	–	0.90	1.9 nM	0.7 nM	20%
